In publication PMC8258697 (The Journal of Biological Chemistry, 2021):

Columns and labels:
PPARγ:RXRα heterodimer = biological target: T1, PPARγ:RXRα heterodimer (Homo sapiens, UniProt P19793+P37231); assay: PPARγ:RXRα heterodimer formation HTRF assay, sGFP-RXRα LBD titrated against biotinylated PPARγ LBD coupled to Tb-SA; type: binding
T1 construct: His10-tag with TEV site (N, cleaved yes); made in house; host or cells: E. coli T7 express (co-expressed with GroEL/ES)
T1 sequence (P37231 234-505): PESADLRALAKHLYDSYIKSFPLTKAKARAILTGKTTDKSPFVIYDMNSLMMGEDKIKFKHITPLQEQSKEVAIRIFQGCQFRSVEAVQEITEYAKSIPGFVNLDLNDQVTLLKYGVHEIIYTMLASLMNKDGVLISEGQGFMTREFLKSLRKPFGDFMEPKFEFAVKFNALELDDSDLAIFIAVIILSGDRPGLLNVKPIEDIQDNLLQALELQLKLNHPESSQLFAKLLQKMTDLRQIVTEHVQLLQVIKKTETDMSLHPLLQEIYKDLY
T1 sequence (P19793 226-462): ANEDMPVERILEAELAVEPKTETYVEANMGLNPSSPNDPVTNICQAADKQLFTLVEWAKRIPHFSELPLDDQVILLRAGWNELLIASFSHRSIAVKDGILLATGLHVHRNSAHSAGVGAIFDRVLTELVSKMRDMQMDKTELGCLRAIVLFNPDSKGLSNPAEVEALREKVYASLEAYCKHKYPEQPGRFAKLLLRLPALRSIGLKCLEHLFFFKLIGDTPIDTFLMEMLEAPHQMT

PPARγ LBD = biological target: T2, PPARγ LBD (Homo sapiens, UniProt P37231); assay: Monomer cofactor recruitment HTRF assay: CBP-1 recruitment by isolated sGFP-PPARγ LBD; type: biochemical; conditions: versus 1 μM Rosi
T2 construct: His10-tag with TEV site (N, cleaved yes); made in house; host or cells: E. coli T7 express (co-expressed with GroEL/ES)
T2 sequence (P37231 234-505): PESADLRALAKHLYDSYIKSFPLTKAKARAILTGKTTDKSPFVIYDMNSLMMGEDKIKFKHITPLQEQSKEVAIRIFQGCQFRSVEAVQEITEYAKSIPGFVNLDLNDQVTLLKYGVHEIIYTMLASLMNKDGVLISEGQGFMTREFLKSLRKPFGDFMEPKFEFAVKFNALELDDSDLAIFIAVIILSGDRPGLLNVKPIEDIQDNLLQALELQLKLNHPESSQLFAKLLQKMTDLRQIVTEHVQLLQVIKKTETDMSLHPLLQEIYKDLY

[1] = biological target: T3, PPARγ LBD in complex with RXRα LBD (Homo sapiens, UniProt P37231); assay: Heterodimer coactivator recruitment HTRF assay: CBP-1 recruitment by PPARγ LBD in complex with sGFP-RXRα LBD total mutant; type: biochemical
T3 construct: His10-tag with TEV site (N, cleaved yes); made in house; host or cells: E. coli T7 express (co-expressed with GroEL/ES)
T3 sequence (P37231 234-505): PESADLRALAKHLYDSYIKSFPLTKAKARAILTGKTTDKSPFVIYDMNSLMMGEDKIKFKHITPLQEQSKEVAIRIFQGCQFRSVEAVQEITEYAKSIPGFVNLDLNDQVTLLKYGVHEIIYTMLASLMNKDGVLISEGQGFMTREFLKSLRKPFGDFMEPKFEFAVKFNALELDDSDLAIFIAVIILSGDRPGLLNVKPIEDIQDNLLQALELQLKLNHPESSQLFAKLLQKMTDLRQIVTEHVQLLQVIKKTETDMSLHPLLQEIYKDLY
T3 sequence (P19793 226-462 V280T/K284E/V298T/F450Y/E453R partner limits assumed): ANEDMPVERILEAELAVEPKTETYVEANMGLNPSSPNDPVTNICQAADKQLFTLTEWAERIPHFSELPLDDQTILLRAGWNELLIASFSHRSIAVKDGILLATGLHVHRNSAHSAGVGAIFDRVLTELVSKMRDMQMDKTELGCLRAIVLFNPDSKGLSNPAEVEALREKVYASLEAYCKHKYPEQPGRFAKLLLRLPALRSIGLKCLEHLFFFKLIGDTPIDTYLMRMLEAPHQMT

PPARγ = conditions: cited from earlier work
[2] = biological target: T3, PPARγ LBD in complex with RXRα LBD; conditions: cited from earlier work
RXRα LBD wildtype = conditions: cited from earlier work
RXRα homodimer = biological target: T4, RXRα homodimer (Homo sapiens, UniProt P19793); assay: RXRα homodimer formation HTRF assay, sGFP-RXRα LBD titrated against biotinylated RXRα LBD (wildtype); type: binding; conditions: 10 μM ligand compared with no ligand
T4 construct: His10-tag with TEV site (N, cleaved yes); made in house; host or cells: E. coli T7 express (co-expressed with GroEL/ES)
T4 sequence (P19793 226-462) 1: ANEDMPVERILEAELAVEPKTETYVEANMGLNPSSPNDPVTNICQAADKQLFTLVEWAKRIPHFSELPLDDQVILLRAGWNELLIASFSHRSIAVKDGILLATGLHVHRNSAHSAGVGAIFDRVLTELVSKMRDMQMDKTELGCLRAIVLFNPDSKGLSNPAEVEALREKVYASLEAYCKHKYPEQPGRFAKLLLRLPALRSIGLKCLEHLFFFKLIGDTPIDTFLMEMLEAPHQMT
T4 sequence (P19793 226-462) 2: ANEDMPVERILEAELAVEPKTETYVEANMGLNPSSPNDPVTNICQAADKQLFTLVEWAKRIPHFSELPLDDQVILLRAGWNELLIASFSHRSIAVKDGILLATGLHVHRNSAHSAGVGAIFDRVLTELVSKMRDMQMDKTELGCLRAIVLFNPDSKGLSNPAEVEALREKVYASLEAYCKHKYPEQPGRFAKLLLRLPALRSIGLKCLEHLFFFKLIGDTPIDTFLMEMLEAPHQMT

O=C(Nc1ccccc1)c1cc([N+](=O)[O-])ccc1Cl [GW9662]
effect on PPARγ:RXRα heterodimer formation (PPARγ:RXRα heterodimer; 1 μM ligand compared with apo): did not affect heterodimer formation
Monomer recruitment, antagonist mode, Max inhibition (%) (PPARγ LBD): 62%
IC50 (PPARγ LBD; read-out: Monomer recruitment, antagonist mode, Potency (IC50)): 1.2 ± 0.07 µM
Dimer recruitment, antagonist mode, Max inhibition (%) ([1]; versus 1 μM Rosi): 52%

O=S(=O)(Nc1cc(Cl)c(Oc2cnc3ccccc3c2)c(Cl)c1)c1ccc(Cl)cc1Cl [INT131]
degree of activation of PPARγ compared with rosiglitazone (PPARγ): 30%

O=C(O)c1c(Sc2ccccc2)c2cc(Cl)ccc2n1Cc1ccccc1 [SR145]
degree of activation of PPARγ compared with rosiglitazone (PPARγ): ~ 35%

O=C(O)Cc1cc(I)c(Oc2cc(I)c(O)c(I)c2)c(I)c1 [TETRAC, 3,3',5,5'-tetraiodothyroacetic acid]
enhancement of CBP-1 recruitment in comparison with 1 μM rosiglitazone [2]: approximately 50%
effect on PPARγ:RXRα heterodimer formation (PPARγ:RXRα heterodimer; 10 μM ligand compared with no ligand): strongly reduced the apparent Kd
reduction in the apparent Kd of dimer formation (PPARγ:RXRα heterodimer; 10 μM ligand in comparison with dimethyl sulfoxide control): 4 fold
activation of RXRα in comparison with 1 μM SR11237 (RXRα LBD wildtype): below 10%
EC50 (RXRα LBD wildtype; read-out: EC50 of activation of RXRα): ~10 µM
effect on RXRα homodimer formation (RXRα homodimer): slightly but significantly weakened

GW1929
reduction of the apparent Kd of heterodimer formation (PPARγ:RXRα heterodimer; 1 μM ligand compared with apo): 3 fold
change of EC50 in the heterodimer setting in comparison with monomeric PPARγ LBD [1]: about 2 fold
Dimer recruitment, agonist mode, Efficacy (%) ([1]; normalized to rosiglitazone in the heterodimer): 118%
